Experiment [1] concerns the target T1, Protein mono-ADP-ribosyltransferase PARP3 (Homo sapiens, UniProt Q9Y6F1).
T1 sequence (Q9Y6F1 whole entry): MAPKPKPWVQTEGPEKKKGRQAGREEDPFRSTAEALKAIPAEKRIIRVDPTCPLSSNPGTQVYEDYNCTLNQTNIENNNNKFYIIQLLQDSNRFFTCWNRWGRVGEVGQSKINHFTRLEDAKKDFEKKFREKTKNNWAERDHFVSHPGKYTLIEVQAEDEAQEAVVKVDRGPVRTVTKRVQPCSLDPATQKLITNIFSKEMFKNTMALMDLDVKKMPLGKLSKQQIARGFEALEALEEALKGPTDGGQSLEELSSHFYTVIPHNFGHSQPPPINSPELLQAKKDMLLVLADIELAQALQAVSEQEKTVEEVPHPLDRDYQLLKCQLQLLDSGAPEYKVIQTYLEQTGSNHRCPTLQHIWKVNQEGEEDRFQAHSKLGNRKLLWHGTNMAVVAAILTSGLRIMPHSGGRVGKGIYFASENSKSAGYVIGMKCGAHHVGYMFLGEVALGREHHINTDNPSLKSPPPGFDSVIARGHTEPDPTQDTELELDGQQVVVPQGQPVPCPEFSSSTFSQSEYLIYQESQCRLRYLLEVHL
The experiment is described as follows: Inhibition of full-length human ARTD3 using 500 nM NAD substrate after 1 hrs incubation.

Experiment [2] has as its target T2, Protein mono-ADP-ribosyltransferase PARP10 (Homo sapiens, UniProt Q53GL7).
T2 sequence (Q53GL7 whole entry): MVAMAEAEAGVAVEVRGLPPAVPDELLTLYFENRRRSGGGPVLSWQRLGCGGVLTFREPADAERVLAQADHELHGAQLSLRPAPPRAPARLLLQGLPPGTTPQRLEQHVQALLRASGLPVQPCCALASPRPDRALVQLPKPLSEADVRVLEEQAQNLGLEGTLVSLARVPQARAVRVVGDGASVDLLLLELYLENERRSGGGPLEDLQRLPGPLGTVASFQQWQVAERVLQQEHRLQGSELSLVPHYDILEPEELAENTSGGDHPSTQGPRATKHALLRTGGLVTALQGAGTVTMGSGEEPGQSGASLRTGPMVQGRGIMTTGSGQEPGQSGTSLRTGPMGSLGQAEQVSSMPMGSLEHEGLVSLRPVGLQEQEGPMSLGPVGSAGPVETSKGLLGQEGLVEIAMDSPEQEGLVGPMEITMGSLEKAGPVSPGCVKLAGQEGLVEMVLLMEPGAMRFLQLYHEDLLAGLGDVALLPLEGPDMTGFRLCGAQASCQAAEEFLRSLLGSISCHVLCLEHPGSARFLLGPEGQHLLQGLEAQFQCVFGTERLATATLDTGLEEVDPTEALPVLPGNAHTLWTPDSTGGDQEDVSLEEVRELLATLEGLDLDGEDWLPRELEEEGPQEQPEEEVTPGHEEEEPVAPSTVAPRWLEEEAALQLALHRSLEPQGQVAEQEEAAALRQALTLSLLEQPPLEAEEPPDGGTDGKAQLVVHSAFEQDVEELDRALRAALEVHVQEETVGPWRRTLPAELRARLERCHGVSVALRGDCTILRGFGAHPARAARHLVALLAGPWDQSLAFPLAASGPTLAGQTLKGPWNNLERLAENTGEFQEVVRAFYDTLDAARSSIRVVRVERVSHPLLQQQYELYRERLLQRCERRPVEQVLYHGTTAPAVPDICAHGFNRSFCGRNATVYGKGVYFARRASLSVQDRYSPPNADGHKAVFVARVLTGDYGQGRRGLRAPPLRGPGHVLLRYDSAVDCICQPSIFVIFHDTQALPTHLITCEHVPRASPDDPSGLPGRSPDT
Put plainly: Inhibition of human ARTD10 (809 to 1017) using 500 nM NAD substrate at 10 uM after 2.5 hrs incubation.

Experiment [3] addresses Protein mono-ADP-ribosyltransferase PARP4 (Homo sapiens, UniProt Q9UKK3). The experiment is described as follows: Inhibition of human ARTD4 (250 to 565) using 500 nM NAD substrate after 2.5 hrs incubation.
Experiment [4] deals with T3, Poly [ADP-ribose] polymerase tankyrase-1 (Homo sapiens, UniProt O95271).
T3 sequence (O95271 whole entry): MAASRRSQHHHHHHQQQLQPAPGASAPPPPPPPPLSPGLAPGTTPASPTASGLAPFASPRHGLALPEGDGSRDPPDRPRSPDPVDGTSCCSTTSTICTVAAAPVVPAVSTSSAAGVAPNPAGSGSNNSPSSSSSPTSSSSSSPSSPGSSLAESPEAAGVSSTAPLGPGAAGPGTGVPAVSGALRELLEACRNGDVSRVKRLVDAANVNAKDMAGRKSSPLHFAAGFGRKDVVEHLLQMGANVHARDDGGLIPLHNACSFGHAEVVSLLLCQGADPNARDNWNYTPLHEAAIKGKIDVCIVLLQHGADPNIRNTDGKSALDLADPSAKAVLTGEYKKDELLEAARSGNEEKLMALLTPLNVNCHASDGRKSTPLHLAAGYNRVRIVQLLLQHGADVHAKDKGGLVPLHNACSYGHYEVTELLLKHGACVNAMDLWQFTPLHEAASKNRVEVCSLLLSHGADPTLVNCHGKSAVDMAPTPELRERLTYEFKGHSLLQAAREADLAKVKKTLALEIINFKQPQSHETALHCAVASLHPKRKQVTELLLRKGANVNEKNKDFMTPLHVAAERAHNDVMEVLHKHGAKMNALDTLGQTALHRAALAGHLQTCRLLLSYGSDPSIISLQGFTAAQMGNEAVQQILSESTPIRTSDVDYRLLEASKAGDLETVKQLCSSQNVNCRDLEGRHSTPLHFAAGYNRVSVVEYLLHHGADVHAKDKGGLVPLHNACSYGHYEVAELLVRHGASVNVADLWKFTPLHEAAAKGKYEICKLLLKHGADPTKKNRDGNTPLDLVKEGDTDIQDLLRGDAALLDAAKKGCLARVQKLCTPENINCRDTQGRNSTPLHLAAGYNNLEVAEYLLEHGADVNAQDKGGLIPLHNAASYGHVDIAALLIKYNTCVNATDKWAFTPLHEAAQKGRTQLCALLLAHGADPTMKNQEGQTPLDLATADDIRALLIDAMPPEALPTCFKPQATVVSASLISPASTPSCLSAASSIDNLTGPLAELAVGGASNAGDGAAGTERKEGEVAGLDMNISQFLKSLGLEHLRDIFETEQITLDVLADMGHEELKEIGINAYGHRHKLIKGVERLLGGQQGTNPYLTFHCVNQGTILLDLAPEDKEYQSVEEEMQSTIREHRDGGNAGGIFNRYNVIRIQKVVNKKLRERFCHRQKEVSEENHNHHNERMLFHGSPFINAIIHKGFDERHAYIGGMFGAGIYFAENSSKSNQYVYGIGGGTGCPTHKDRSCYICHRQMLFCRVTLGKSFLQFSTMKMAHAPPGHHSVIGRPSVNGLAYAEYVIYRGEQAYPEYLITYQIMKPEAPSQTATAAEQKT
Put plainly: Inhibition of human TNKS1 (1030 to 1317) using NAD substrate after 20 mins incubation by fluorescence assay.

A word on the IC50: it is the concentration that inhibits the measured activity by half.

SMILES strings stand for the structures.

Chain of Protein mono-ADP-ribosyltransferase PARP4 (Q9UKK3 whole entry): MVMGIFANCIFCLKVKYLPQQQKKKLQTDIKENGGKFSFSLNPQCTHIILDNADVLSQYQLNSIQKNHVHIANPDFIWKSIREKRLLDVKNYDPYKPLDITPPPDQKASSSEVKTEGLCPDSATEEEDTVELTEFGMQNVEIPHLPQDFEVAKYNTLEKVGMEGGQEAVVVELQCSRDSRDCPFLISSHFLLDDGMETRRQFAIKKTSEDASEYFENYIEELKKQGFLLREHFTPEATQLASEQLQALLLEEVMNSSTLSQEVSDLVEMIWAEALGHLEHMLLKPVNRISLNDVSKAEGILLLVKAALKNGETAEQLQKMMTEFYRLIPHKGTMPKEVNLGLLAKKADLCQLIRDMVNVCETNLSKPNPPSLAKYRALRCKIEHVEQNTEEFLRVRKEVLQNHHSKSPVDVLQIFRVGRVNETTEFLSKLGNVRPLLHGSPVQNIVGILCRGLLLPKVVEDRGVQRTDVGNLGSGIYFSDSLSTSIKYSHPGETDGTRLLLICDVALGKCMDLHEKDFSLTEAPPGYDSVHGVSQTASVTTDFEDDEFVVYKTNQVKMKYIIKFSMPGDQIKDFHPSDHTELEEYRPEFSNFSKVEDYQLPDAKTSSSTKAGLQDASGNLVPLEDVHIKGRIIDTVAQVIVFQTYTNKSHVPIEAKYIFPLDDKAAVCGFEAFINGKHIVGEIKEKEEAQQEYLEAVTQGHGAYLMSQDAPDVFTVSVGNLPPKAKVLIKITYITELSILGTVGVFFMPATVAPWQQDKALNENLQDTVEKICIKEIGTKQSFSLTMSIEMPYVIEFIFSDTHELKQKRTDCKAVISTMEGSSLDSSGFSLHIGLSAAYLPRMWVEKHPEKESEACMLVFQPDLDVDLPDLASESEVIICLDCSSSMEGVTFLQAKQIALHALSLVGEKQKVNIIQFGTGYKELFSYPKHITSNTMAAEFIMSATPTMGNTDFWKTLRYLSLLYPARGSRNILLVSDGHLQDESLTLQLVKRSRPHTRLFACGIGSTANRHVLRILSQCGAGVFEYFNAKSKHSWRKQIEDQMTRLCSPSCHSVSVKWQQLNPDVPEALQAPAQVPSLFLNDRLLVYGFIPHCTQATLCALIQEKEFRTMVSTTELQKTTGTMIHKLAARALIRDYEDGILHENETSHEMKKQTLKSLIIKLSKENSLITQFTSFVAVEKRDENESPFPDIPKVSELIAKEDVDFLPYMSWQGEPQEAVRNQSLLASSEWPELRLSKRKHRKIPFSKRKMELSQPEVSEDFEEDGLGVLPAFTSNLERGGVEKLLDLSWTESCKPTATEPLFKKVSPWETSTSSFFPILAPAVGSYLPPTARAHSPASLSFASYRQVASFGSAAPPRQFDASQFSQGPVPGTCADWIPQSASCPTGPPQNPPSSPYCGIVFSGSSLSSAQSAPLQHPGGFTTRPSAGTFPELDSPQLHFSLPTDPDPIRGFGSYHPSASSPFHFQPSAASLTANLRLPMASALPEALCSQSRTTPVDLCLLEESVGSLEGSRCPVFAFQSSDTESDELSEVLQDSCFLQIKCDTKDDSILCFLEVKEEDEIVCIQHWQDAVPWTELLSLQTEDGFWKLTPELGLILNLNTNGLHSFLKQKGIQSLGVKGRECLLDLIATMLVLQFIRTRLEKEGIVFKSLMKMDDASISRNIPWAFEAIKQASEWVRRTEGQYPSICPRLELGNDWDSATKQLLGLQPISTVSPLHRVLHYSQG

Take `CC(C)(C)c1ccc(C2NC(=O)c3ccccc3N2)cc1` (stereo not drawn): the IC50 in experiment [1] was 34 µM; in experiment [2], > 10 µM; in experiment [3] it was > 100 µM; in experiment [4], 0.62 µM.
For `CC(C)c1ccc(C2NC(=O)c3ccccc3N2)cc1` (stereo not drawn), in that order: 50 µM, > 10 µM, > 100 µM and 1.1 µM.

Values taken from ChEMBL document CHEMBL3593161, “Discovery of potent and selective nonplanar tankyrase inhibiting nicotinamide mimics” (Bioorg Med Chem, 2015).
